For one assay, the target named is T1, LRRK2 (Mus musculus, UniProt Q5S006).
T1 construct: endogenous in cells; host or cells: mouse bone marrow-derived macrophages
Nature of the assay: LRRK2 degradation in bone marrow-derived macrophages (BMDMs). The format is cell-based. Particulars: 4 h. From the text:
The relative LRRK2 protein and pRab10 levels were obtained by quantifying the ratios of total LRRK2/GAPDH or Rab10-pThr73/total Rab10, respectively, and the ratios were normalized to the DMSO-treated samples. The relative LRRK2 and pRab10 protein levels were plotted against the compound concentration and fitted against “nonlinear regression, one site-fit log IC50” in GraphPad to obtain the DC50 and EC50 values. Data points are presented as mean ± standard error of the mean (SEM) from three biological independent replicates. […] The relative LRRK2 protein and pRab10 levels were obtained by quantifying the ratios of total LRRK2/ GAPDH or Rab10-pThr73/total Rab10, respectively, and the ratios were normalized to the DMSO-treated samples. The relative LRRK2 and pRab10 protein levels were plotted against the treatment time and were fitted against “nonlinear regression, one-phase decay” in GraphPad to obtain the half-life (T1/2) values. Data points are presented as mean ± SEM from three biological independent replicates. […] The relative LRRK2 levels were obtained by quantifying the ratios of total LRRK2/tubulin and normalized to the DMSO-treated samples. The relative LRRK2 levels were plotted against the compound concentration and fitted against “nonlinear regression, one site-fit log IC50” in GraphPad to obtain the DC50 values.
Bone marrow isolation and macrophage differentiation were modified from ref ([81]), employing an L929 preconditioned medium as the source of M-CSF for differentiation. Briefly, scissors and forceps were used to dissect femurs and tibiae from adult mice, and muscle tissues were carefully removed from bones. Clean femurs and tibiae were placed in a tissue culture dish containing complete media. The ends of each bone were cut with scissors to expose the bone marrow. […] The cell suspension was counted, and cells were seeded for experimental analysis in a six-well format in tissue culture-treated dishes at a final cell density of one million cells per well of a six-well plate. […]

The target of a further assay is T2, R1441C LRRK2 (Mus musculus, UniProt Q5S006, R1441C).
T2 construct: endogenous in cells; host or cells: R1441C LRRK2 MEFs
Nature of the assay: LRRK2 degradation in R1441C LRRK2 MEFs. The format is cell-based. The note with it: 4 h.

A further assay deals with mito-QC MEFs. In words: Mitophagy in mito-QC MEFs. In kind it is cell-based, mouse. Particulars: 24 h treatment. The text has this:
Mitochondrial dysfunction is one of the pathophysiological hallmarks of PD[73] and can be rescued by mitophagy, a quality control mechanism whereby damaged or unnecessary mitochondria are delivered to lysosomes for degradation through membrane trafficking.[8] It has been shown that increasing mitophagy with inducer agents has the potential as a PD therapy.[74] Previous studies have shown that the LRRK2 kinase activity impairs basal mitophagy and that LRRK2 knockout or pharmacological inhibition of LRRK2 with kinase inhibitors was able to rescue the mitophagy level.[8]
Data are represented as mean ± SEM from three to five independent experiments.
Immortalized mito-QC MEFs[8],[93] were maintained in DMEM (Gibco, 11960–044) supplemented with 10% FBS, 2 mM L-glutamine (Gibco, 2503-081), 1% Na-pyruvate (Gibco, 11360-070), 1% nonessential amino acids (Gibco, 11140–035), and 1% antibiotics (penicillin/streptomycin, 100 U/mL penicillin and 100 μg/mL streptomycin; Gibco) at 37 °C under a humidified 5% CO2 atmosphere. […] Quantification of red-only dots was semiautomatized using the mito-QC counter plugin on FIJI, as previously described,[8],[94] using the following parameters: radius for smoothing images = 2, ratio threshold = 1.5, and red channel threshold = mean + 1 SD. […]

The subject of another assay is Rab10-pThr73. Nature of the assay: Rab10 dephosphorylation in G2019S LRRK2 MEFs by Western blotting. In kind it is cell-based, mouse. The note with it: 0.3 µM. (In general: A western blot detects proteins with antibodies after separation by electrophoresis.)

Each structure is given as a SMILES string.

T2 sequence (Q5S006 whole entry R1441C): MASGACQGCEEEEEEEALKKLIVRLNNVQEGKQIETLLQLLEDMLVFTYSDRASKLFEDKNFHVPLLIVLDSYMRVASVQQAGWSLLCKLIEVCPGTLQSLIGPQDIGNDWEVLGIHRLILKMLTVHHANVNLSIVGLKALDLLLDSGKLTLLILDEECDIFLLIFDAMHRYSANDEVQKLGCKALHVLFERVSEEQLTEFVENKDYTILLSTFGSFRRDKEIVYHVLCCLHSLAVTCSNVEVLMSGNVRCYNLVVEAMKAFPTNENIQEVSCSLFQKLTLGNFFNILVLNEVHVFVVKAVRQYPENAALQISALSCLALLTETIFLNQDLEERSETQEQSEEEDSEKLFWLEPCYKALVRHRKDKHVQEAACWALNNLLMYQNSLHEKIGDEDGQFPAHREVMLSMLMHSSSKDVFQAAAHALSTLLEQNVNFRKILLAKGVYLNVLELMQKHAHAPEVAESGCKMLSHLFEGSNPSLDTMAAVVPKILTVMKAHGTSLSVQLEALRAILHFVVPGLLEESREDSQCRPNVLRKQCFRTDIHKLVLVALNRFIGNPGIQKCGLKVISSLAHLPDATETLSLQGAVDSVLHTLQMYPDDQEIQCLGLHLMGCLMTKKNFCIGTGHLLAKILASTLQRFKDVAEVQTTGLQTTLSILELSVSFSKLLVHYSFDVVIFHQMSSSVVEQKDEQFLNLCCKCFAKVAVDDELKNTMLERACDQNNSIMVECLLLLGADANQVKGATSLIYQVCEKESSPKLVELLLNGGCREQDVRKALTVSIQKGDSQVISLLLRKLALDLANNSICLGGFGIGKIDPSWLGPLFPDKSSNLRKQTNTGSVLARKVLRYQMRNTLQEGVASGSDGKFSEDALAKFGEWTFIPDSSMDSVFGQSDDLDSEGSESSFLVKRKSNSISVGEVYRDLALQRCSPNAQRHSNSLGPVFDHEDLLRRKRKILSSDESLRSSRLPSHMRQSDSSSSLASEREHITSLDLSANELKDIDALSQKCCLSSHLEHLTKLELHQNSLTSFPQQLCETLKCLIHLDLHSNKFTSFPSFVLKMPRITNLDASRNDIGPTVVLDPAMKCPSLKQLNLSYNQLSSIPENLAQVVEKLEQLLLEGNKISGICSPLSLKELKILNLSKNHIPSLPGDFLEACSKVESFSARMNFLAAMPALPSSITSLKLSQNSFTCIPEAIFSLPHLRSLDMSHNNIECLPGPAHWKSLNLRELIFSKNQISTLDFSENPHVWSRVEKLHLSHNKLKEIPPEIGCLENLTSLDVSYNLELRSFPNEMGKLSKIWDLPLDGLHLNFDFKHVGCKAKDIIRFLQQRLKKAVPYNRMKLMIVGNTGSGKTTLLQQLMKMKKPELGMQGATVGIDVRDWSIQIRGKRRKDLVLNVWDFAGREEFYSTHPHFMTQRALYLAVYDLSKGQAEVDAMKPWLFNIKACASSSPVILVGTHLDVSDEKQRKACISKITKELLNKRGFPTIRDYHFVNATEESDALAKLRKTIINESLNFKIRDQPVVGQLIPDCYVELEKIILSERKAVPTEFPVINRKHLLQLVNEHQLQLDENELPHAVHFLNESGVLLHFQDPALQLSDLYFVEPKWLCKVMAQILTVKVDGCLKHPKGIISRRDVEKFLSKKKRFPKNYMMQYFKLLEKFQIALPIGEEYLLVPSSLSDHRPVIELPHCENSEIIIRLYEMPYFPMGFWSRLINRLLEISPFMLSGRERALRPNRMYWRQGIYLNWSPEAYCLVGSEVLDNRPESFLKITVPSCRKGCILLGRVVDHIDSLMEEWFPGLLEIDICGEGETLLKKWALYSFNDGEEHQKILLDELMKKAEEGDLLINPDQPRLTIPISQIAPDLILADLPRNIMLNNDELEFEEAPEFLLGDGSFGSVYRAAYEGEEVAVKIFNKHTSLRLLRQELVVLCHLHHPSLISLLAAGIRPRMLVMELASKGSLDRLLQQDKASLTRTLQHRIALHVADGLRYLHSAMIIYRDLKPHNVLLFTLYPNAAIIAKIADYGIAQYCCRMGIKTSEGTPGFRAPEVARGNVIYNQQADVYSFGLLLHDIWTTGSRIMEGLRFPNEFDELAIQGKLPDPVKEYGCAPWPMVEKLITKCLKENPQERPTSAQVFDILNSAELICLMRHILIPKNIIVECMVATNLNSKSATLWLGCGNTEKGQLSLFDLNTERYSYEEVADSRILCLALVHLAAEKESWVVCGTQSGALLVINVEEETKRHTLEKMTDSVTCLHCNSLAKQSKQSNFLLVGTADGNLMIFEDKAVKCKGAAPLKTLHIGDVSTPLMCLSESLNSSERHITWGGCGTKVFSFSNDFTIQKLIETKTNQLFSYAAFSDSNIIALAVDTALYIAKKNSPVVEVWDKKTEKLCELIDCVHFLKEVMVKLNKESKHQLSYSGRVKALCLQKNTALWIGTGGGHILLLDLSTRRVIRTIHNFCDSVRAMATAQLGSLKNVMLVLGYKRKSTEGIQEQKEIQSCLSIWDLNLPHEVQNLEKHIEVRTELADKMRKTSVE
T1 sequence (Q5S006 whole entry): as the sequence (Q5S006 whole entry R1441C) above, with C1441R counted along it

The molecule `CNc1nc(Nc2ccc(C(=O)N3CCN(C[C@H]4CC[C@H](CSC(C)(C)[C@H](NC(=O)C5(F)CC5)C(=O)N5C[C@H](O)CC5C(=O)NCc5ccc(-c6scnc6C)cc5)CC4)CC3)cc2OC)ncc1Cl` (stereo partly drawn) [XL01126, (2S,4R)-1-((R)-3-((((1R,4R)-4-((4-(4-((5-Chloro-4-(methylamino)pyrimidin-2-yl)amino)-3-methoxybenzoyl)piperazin-1-yl)methyl)cyclohexyl)methyl)thio)-2-(1-fluorocyclopropane-1-carboxamido)-3-methylbutanoyl)-4-hydroxy-N-(4-(4-methylthiazol-5-yl)benzyl)pyrrolidine-2-carboxamide] registered a Dmax on LRRK2 (BMDM) of 83%. In addition, the “DC50s (LRRK2)” value at R1441C LRRK2 is listed as 15 nM (4 h). Further, the “mitophagy level (in words)” value with mito-QC MEFs is given as “induced the mitophagy level dose-dependently”. The “GS-pRab10 percent label at the end of the time curve” value in the assay on Rab10-pThr73 is 92%.
Regarding `CNc1nc(Nc2ccc(C(=O)N3CCN(C[C@H]4CC[C@@H](CSC(C)(C)[C@H](NC(=O)C5(F)CC5)C(=O)N5C[C@H](O)CC5C(=O)NCc5ccc(-c6scnc6C)cc5)CC4)CC3)cc2OC)ncc1Cl` (stereo partly shown) [XL01134], the “GS-pRab10 percent label at the end of the time curve” value with Rab10-pThr73 is 87%.
As for `CNc1nc(Nc2ccc(C(=O)N3CCN(C[C@H]4CC[C@H](CSC(C)(C)[C@H](NC(=O)C5(F)CC5)C(=O)N5C[C@@H](O)C[C@H]5C(=O)NCc5ccc(-c6scnc6C)cc5)CC4)CC3)cc2OC)ncc1Cl` [cis-XL01126, (2S,4S)-1-((R)-3-((((1R,4R)-4-((4-(4-((5-Chloro-4-(methylamino)pyrimidin-2-yl)amino)-3-methoxybenzoyl)piperazin-1-yl)methyl)cyclohexyl)methyl)thio)-2-(1-fluorocyclopropane-1-carboxamido)-3-methylbutanoyl)-4-hydroxy-N-(4-(4-methylthiazol-5-yl)benzyl)pyrrolidine-2-carboxamide], on LRRK2, the “DC50s (LRRK2)” value is recorded as “NDO” and the “Dmax (LRRK2)” value is on record as “NDO”. Moreover, on R1441C LRRK2, the “DC50s (LRRK2)” value is “NDO” and the “Dmax (LRRK2)” value was “NDO”. In the assay on mito-QC MEFs, the “mitophagy level (in words)” value was “induced the mitophagy level dose-dependently”.

The Dmax is the greatest extent of degradation seen. Read a high Dmax as deep degradation.

The record behind these values is article PMC9501899 (Journal of the American Chemical Society, 2022).
